Data on 10 compounds can be found in patent publication US8648085B2, “1, 5-dihydro-pyrazolo (3, 4-D) pyrimidin-4-one derivatives and their use as PDE9A mudulators for the treatment of CNS disorders” (Boehringer Ingelheim International GmbH, priority 2007, dated 2014).

Where only a bound is given, the exact number is not on record here.

As a reminder, the inhibition is the relative decrease from the control value, in per cent. What is called IC50 is the concentration that gives 50% inhibition. The low end stands for greater potency in that assay, the high end for weaker potency in that assay.

In one test the target is PDE9A (Homo sapiens, UniProt O76083). Kind of test: PDE enzymatic activity assay (SPA), PDE9A. It counts as biochemical. Further details: made in house; host or cells: SF9 insect cells (crude lysate used as enzyme source). Conditions: cGMP substrate, for illustrative purposes; for inhibition at 10 µM: 10 micromolar; for IC50: given as ranges. As for the experimental part:
(§1) The PDE enzymatic activity assays were run as SPA, in general according to the protocol of the manufacturer (Amersham Biosciences, product number: TRKQ 7100). As enzyme source, lysate (PBS with 1% Triton X-100 supplemented with protease inhibitors, cell debris removed by centrifugation at 13.000 rpm for 30 min) of SF 9 cell expressing the human PDE of interest was used. The total protein amount included in the assay varied upon infection and production efficacy of the SF9 cells and lay in the range of […].
(§2) In general, the assay conditions were as follows: • total assay volume: 40 μl • protein amount: 0.1-50 ng • substrate concentration (cGMP or cAMP): 20 nM; ˜1 mCi/l • incubation time: 60 min at room temperature • final DMSO concentration: 1%
(§3) The assays were run in 384-well format. The test reagents as well as the enzyme and the substrate were diluted in assay buffer. The assay buffer contained 50 mM Tris, 8.3 mM MgCl2, 1.7 mM EGTA, 0.1% BSA, 0.05% Tween 20; the pH of assay buffer was adjusted to 7.5. In case activity of PDE1C was analysed, 50 nM Calmodulin and 3 mM CaCl2 were included in the assay buffer. In case PDE9 activity was analyzed, the reaction was stopped by applying a PDE9 specific inhibitor (e.g. compounds according to WO2004/099210). PDE1C was analysed with cAMP as substrate, and PDE9 was analyzed with cGMP as substrate.
Calculation of % Inhibition:
The activity of the positive control (minus the negative control=background) is set to 100% and activity in the presence of test compound is expressed relative to these 100%.
Within this setting, an inhibition above 100% might be possible due to the nature of the variation of the positive control within the assay, however, in this case the reported % inhibition had been adjusted to 100%.
(§4) IC50 can be calculated in a conventional way, eventually with the help of GraphPadPrism or other suited software setting the positive control as 100 and the negative control as 0. For calculation of IC50 usually 8 dilutions of the test compound ([…]) are to be selected and tested following the aforementioned protocol.

For a further test, the target named is T1, PDE1C (Homo sapiens, UniProt Q14123).
T1 construct: made in house; host or cells: SF9 insect cells (crude lysate used as enzyme source)
Kind of test: PDE enzymatic activity assay (SPA), PDE1C, cAMP as substrate. Type of test: biochemical. The note with it: ratio IC50 PDE1C / IC50 PDE9A; for illustrative purposes. How it is done: as §1, §2, §3, §4

Chain of PDE9A (O76083 whole entry): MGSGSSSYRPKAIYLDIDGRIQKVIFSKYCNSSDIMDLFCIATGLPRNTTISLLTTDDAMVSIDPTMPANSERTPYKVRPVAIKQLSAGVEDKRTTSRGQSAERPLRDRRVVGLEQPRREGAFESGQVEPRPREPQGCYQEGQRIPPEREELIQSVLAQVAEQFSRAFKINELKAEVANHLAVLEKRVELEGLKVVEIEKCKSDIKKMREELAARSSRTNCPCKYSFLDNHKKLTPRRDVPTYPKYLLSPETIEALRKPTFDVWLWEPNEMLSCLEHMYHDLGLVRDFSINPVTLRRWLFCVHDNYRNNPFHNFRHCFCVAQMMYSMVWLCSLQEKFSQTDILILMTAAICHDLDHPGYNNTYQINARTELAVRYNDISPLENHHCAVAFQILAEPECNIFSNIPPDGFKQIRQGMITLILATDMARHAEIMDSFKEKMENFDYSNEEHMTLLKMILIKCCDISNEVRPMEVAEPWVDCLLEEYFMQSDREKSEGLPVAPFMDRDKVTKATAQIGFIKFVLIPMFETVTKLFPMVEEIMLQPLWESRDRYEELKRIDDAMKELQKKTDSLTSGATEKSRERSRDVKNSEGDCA

For `O=c1[nH]c(Cc2ccccc2OC(F)(F)F)nc2c1cnn2-c1cccc(Cl)c1Cl` [Example 29, 1-(2,3-Dichloro-phenyl)-6-(2-trifluoromethoxy-benzyl)-1,5-dihydro-pyrazolo[3,4-d]pyrimidin-4-one], on PDE9A, the inhibition at 10 µM is 89% and the IC50 fell in the range of 10 to 500 nM. On PDE1C, the “Selectivity = IC50 PDE 1C/IC50 PDE9A (both nanomolar)” value (from here on “Selectivity = IC50 PDE 1C/IC50 PDE9A”) came out at 9.

For `O=c1[nH]c(Cc2ccccc2OC(F)(F)F)nc2c1cnn2-c1ncc(F)cc1F` [Example 39, 6-(2-Trifluoromethoxy-benzyl)-1-(3,5-difluoro-pyridin-2-yl)-1,5-dihydro-pyrazolo[3,4-d]pyrimidin-4-one], at PDE9A, the inhibition at 10 µM amounted to 97% and the IC50 lay in the range of 10 to 500 nM. For the same compound, the “Selectivity = IC50 PDE 1C/IC50 PDE9A” value at PDE1C is on record as 4.

As to `Cc1cc(F)c(F)cc1-n1ncc2c(=O)[nH]c(Cc3ccccc3OC(F)(F)F)nc21` [Example 21, 1-(4,5-Difluoro-2-methyl-phenyl)-6-(2-trifluoromethoxy-benzyl)-1,5-dihydro-pyrazolo[3,4-d]pyrimidin-4-one], on PDE9A, the inhibition at 10 µM was found to be 91% and the IC50 lay in the range of 10 to 500 nM. Moreover, at PDE1C, the “Selectivity = IC50 PDE 1C/IC50 PDE9A” value was determined as 93.

For the compound `O=c1[nH]c(Cc2ccccc2OC(F)(F)F)nc2c1cnn2-c1ccc(F)cc1Cl` [Example 13, 1-(2-Chloro-4-fluoro-phenyl)-6-(2-trifluoromethoxy-benzyl)-1,5-dihydro-pyrazolo[3,4-d]pyrimidin-4-one], on PDE9A, the inhibition at 10 µM came to 96% and the IC50 fell in the range of 10 to 500 nM. Moreover, on PDE1C, the “Selectivity = IC50 PDE 1C/IC50 PDE9A” value was determined as 10.

In the case of `COc1ccc(Cl)c(-n2ncc3c(=O)[nH]c(Cc4ccccc4OC(F)(F)F)nc32)c1` [Example 22, 1-(2-Chloro-5-methoxy-phenyl)-6-(2-trifluoromethoxy-benzyl)-1,5-dihydro-pyrazolo[3,4-d]pyrimidin-4-one], on PDE9A, the inhibition at 10 µM is 98% and the IC50 is 10 to 500 nM. Also, the “Selectivity = IC50 PDE 1C/IC50 PDE9A” value at PDE1C was determined as 14.

Take `Cc1cccc(Cl)c1-n1ncc2c(=O)[nH]c(Cc3ccccc3OC(F)(F)F)nc21` [Example 24, 1-(2-Chloro-6-methyl-phenyl)-6-(2-trifluoromethoxy-benzyl)-1,5-dihydro-pyrazolo[3,4-d]pyrimidin-4-one]: at PDE9A, the inhibition at 10 µM worked out at 87% and the IC50 is above 500 nM. The “Selectivity = IC50 PDE 1C/IC50 PDE9A” value at PDE1C is given as 49.

For `O=C(c1ccc(Cl)c(-n2ncc3c(=O)[nH]c(Cc4ccccc4OC(F)(F)F)nc32)c1)N1CCOCC1` [Example 37, 1-[2-Chloro-5-(N-morpholino-carbonyl)-phenyl]-6-(2-trifluoromethoxy-benzyl)-1,5-dihydro-pyrazolo[3,4-d]pyrimidin-4-one], on PDE9A, the inhibition at 10 µM was determined as 99% and the IC50 was 10 to 500 nM. At PDE1C, the “Selectivity = IC50 PDE 1C/IC50 PDE9A” value came out at 27.

As to `O=c1[nH]c(Cc2ccccc2OC(F)(F)F)nc2c1cnn2-c1cc(Cl)ccc1Cl` [Example 16, 1-(2,5-Dichloro-phenyl)-6-(2-trifluoromethoxy-benzyl)-1,5-dihydro-pyrazolo[3,4-d]pyrimidin-4-one], at PDE9A, the inhibition at 10 µM worked out at 93% and the IC50 lay in the range of 10 to 500 nM. Moreover, the “Selectivity = IC50 PDE 1C/IC50 PDE9A” value on PDE1C is 71.

For the compound `O=c1[nH]c(Cc2ccccc2OC(F)(F)F)nc2c1cnn2-c1ccc(F)cc1F` [Example 12, 1-(2,4-Difluoro-phenyl)-6-(2-trifluoromethoxy-benzyl)-1,5-dihydro-pyrazolo[3,4-d]pyrimidin-4-one], at PDE9A, the inhibition at 10 µM stood at 102% and the IC50 lay within 10 to 500 nM. Moreover, on PDE1C, the “Selectivity = IC50 PDE 1C/IC50 PDE9A” value stood at 8.

As to `Cc1ccccc1-n1ncc2c(=O)[nH]c(Cc3ccccc3OC(F)(F)F)nc21` [Example 2, 1-o-Tolyl-6-(2-trifluoromethoxy-benzyl)-1,5-dihydro-pyrazolo[3,4-d] pyrimidin-4-one], on PDE9A, the inhibition at 10 µM was 98% and the IC50 fell in the range of 10 to 500 nM. Further, the “Selectivity = IC50 PDE 1C/IC50 PDE9A” value at PDE1C turned out to be 14.
